The source of these data is patent US11364209B2, “Methods and compositions for treating atopic dermatitis” (Golden Biotechnology Corporation, priority 2016, dated 2022).

Data set [1] in a line: Metabolite obtained from urine of rats fed with Compound 1. It is filed as in vivo. The note with it: urine samples of rats fed with Compound 1. On the procedure:
Compound 27 was determined to be 4-hydroxy-2,3-dimethoxy-6-methyl-5-(3-methyl-2-hexenoic acid)cyclohex-2-enone with molecular weight of 312 (C16 H24O6). Compound 25 which was determined as 2,3-dimethoxy-5-methyl-6-((2E,6E)-3,7,11-trimethyldodeca-2,6,10-trienyl)cyclohexa-2,5-diene-1,4-dione (molecular weight of 386.52, C24 H34 O4), was obtained from the purification process.

Data set [2] can be described thus: Outside-in animal model (OVA-sensitized mice): body weight and clinical signs. It counts as in vivo. The note with it: oral doses. The procedure: BALC/c female rat in 6-8-week old is used. Each group has 6-8 rats. Blood sample was taken from the cheek of rat before sensitization. On day 1 and day 8, mice were injected intraperitoneally with 50 μg/mice of OVA-aluminum hydroxide (1:1 v/v). The mice were epicutaneously sensitized with OVA patches on day 15. OVA (100 μg) prepared in PBS was contained in a 2×2-cm patch of sterile gauze that was placed on the shaved backs of mice and secured to the skin with 3 M Tegader film followed by 3 M Coban tape to secure the gauze. After 3 days, the gauze was removed and reapplied. The procedure was repeated three times. Day 27, all the mice in the study was sacrificed and examined.
days 1 and 8 were injected OVA (sensitization), day 15 applied OVA gauze for 3 days (challenge) and rested one day. The application of OVA gauze procedure was repeated 3 times. Starting on day 14, the mice in the group were fed water.
Same procedure as group O except the mice were fed low dose (5 mg/kg BW) of exemplary compound 1.
Same procedure as group O except the mice were fed medium dose (15 mg/kg BW) of exemplary compound 1.
Same procedure as group O except the mice were fed high dose (45 mg/kg BW) of exemplary compound 1.

The mark [3] stands for this setting: all treatment groups, through the study period.

In the case of `COC1=C(OC)C(O)C(C/C=C(\C)CCC(=O)O)C(C)C1=O` (stereo not shown) [Compound 27], the “metabolite found in urine” value in data set [1] is given as “a metabolite of compound 1”.

Take `COC1=C(OC)C(O)C(C/C=C(\C)CC/C=C(\C)CCC=C(C)C)C(C)C1=O` (stereo not shown) [Compound 1, 4-hydroxy-2,3-dimethoxy-6-methyl-5-(3,7,11-trimethyldodeca-2,6,10-trienyl)cyclohex-2-enone]: the “body weight change between all treatment groups” value in data set [2] (FIG. 1) is given as “no significant difference”. Moreover, in data set [2] (setting [3]), the “loss in body weight” value is listed as “did not lead to any loss in body weight” and the observed clinical signs entry is on record as “did not lead to any loss in body weight or any observed clinical signs”.
